Assay results as given in US6664235B1, “Medicaments comprising sialic acid derivatives as active ingredients” (priority 1999, dated 2003).
Read-outs that look alike come from different tables or passages of the source.

What was measured:
[1] = tested on: influenza virus A/Aichi/2/68 (H3N2); type: binding
[2] = tested on: influenza virus A/PR/8/34 (H1N1) hemagglutinin; assay: Hemagglutination inhibitory assay with human erythrocytes; type: cell-based; conditions: lowest concentration that completely inhibited agglutination; viruses 2^4 HA units, 4° C., 1 hour
[3] = tested on: sialidase of influenza virus A/Singapore/1/57 (H2N2); type: biochemical, human isolate; conditions: read-out: Inhibitory activity (IC50, μM) 4-MU-Neu5Ac as substrate
[4] = tested on: sialidase of influenza virus A/Aichi/2/68 (H3N2); type: biochemical, human isolate
[5] = tested on: sialidase of influenza virus A/duck/36/4/76 (H1N1); type: biochemical, avian isolate; conditions: read-out: Inhibitory activity (IC50, μM) 4-MU-Neu5Ac as substrate
[6] = tested on: sialidase of influenza virus A/duck/849/3/80 (H4N1); type: biochemical, avian isolate
[7] = tested on: sialidase of influenza virus A/duck/13/2/76 (H6N1); type: biochemical, avian isolate
[8] = tested on: sialidase of influenza virus A/duck/33/3/76 (H10N1); type: biochemical, avian isolate
[9] = tested on: sialidase of influenza virus A/duck/273/8/78 (H2N2); type: biochemical, avian isolate
[10] = tested on: sialidase of influenza virus A/duck/24/5/76 (H3N2); type: biochemical, avian isolate
[11] = tested on: sialidase of influenza virus A/duck/47/5/76 (H7N2); type: biochemical, avian isolate
[12] = tested on: sialidase of influenza virus A/duck/86/1/76 (H9N2); type: biochemical, avian isolate
[13] = tested on: sialidase of influenza virus A/duck/44/3/76 (H11N3); type: biochemical, avian isolate
[14] = tested on: sialidase of influenza virus A/duck/862/5/80 (H12N5); type: biochemical, avian isolate
[15] = tested on: sialidase of influenza virus A/swine/Hokkaido/2/81 (H1N1); type: biochemical, swine isolate; conditions: read-out: Inhibitory activity (IC50, μM) Neu5Ac-DSPE as substrate
[16] = tested on: sialidase of influenza virus A/swine/Italy/309/83 (H3N2); type: biochemical, swine isolate
[17] = tested on: influenza virus A/Aichi/2/68 (H3N2) strain; assay: Inhibition of infection of influenza virus to MDCK cells (LDH release, cytopathic effect); type: cell-based; conditions: LDH released from infected cells
[18] = tested on: influenza virus A/Aichi/2/68 (H3N2) strain; type: cell-based; conditions: read-out: IC50, early stage of infection
[19] = tested on: influenza virus A/Aichi/2/68 (H3N2) strain; type: cell-based; conditions: read-out: IC50 of prevention of cytopathic effects, late stage
[20] = biological target: sialidase of influenza virus A/PR/8/34 (H1N1) (Influenza A virus, UniProt P03468)
[21] = Test of resistance to acid hydrolysis (1H NMR); conditions: for half-life: 1.0 N D2SO4/D2O, pH 1.37
[22] = biological target: Clostridium perfringens sialidase (Clostridium perfringens, UniProt A0A0H2YQR1); type: biochemical
[23] = read-out: Inhibitory activity (IC50, μM) 4-MU-Neu5Ac as substrate
[24] = read-out: Inhibitory activity (IC50, μM) Neu5Ac-DSPE as substrate

With `CCCCCCCCCCCCCCCCCC(=O)CC(COC(=O)CCCCCCCCCCCCCCCCC)COP(=O)(O)OCCNCCOC1(C(=O)O)CC(O)C(NC(C)=O)C(C(O)C(O)CO)O1` (centres unmarked) [Compound 6] the “Binding assay (%) H3N2” value [1] was 25% and the “HAI (M) H1N1” value [2] was 0.001 M.
For `CCCCCCCCCCCCCCCCCC(=O)CC(COC(=O)CCCCCCCCCCCCCCCCC)COP(=O)(O)OCCNCCOC1(C(=O)O)OC(C(O)C(O)CO)C(NC(C)=O)C(O)C1F` (centres unmarked) [Compound 9], the IC50 [3] was 15.6 µM, the “virus sialidase activity inhibition” value [4] was “completely inhibited” and the IC50 [4, 23] was 31.3 µM. It also gave an IC50 [4, 24] of 31.3 µM, an IC50 [5] of 125 µM and an IC50 [6, 23] of 125 µM. For the same compound, the IC50 [6, 24] was 125 µM, the IC50 [7, 23] was 150 µM and the IC50 [7, 24] was 180 µM. For the same compound, the IC50 [8, 23] was 500 µM, the IC50 [8, 24] was 250 µM and the IC50 [9, 23] was 150 µM. The IC50 [9, 24] was 125 µM, the IC50 [10, 23] was 180 µM and the IC50 [10, 24] was 100 µM. The IC50 [11, 23] was 200 µM, the IC50 [11, 24] was 150 µM and the IC50 [12, 23] was 180 µM. It also gave an IC50 [12, 24] of 125 µM, an IC50 [13, 23] of 250 µM and an IC50 [13, 24] of 75 µM. The IC50 [14, 23] was 125 µM, the IC50 [14, 24] was 100 µM and the IC50 [15] was 125 µM. For the same compound, the IC50 [16, 23] was 125 µM, the IC50 [16, 24] was 150 µM and the “HAI (M) H1N1” value [2] was 0.001 M. It also gave an IC50 [17] of 5.6 µM, an IC50 [18] of 14 µM and an IC50 [19] of ~40 µM. The “virus sialidase activity inhibition” value [20] was “completely inhibited” and the IC50 [20, 24] was 31.3 µM.
For `CCCCCCCCCCCCCCCCCC(=O)CC(COC(=O)CCCCCCCCCCCCCCCCC)COP(=O)(O)OCCNCCOC1(C(=O)O)OC(C(O)C(O)CO)C(NC(C)=O)C(O)C1O` (centres unmarked) [Compound 8], the “HAI (M) H1N1” value [2] was >0.001 M.
In the case of `CC(=O)NC1C(O)C(F)C(Oc2ccc([N+](=O)[O-])cc2)(C(=O)O)OC1C(O)C(O)CO` (centres unmarked) [Compound 5], the half-life [21] is reported as 2880 min.
With `CC(=O)NC1C(O)C(O)C(Oc2ccc([N+](=O)[O-])cc2)(C(=O)O)OC1C(O)C(O)CO` (centres unmarked) [Compound 3] the “Ki (M) NA (C. perfringens)” value [22] was “Very weak” and the half-life [21] was 1380 min.
With `CC(=O)NC1C(O)CC(Oc2ccc([N+](=O)[O-])cc2)(C(=O)O)OC1C(O)C(O)CO` (centres unmarked) [Compound 2] the “Hydrolysis T½ (hour) 1N sulfuric acid 50° C.” value ([21]; 1N sulfuric acid, 50° C.) was 0.15 h.
For `CCCCCCCCCCCCCCCCCC(=O)CC(COC(=O)CCCCCCCCCCCCCCCCC)COP(=O)(O)OCCNCCOC1(C(=O)O)OC(C(O)C(O)CO)C(NC(C)=O)C(O)C1O` (centres unmarked) [Compound 7], the “affinity to H3 type virus HA relative to Compound 6” value [1] was 144% and the “HAI (M) H1N1” value [2] was 0.001 M.
